Experimental data: US20060178293A1, “Cardiotonic polypeptides” (priority 2003, published 2006)

System: isolated cardiomyocytes derived from adult rats
Details: electrically stimulated; 0.35 μg/ml (FIG. 5)

SMILES: NCCc1ccc(O)c(O)c1 [inotropin]
- mechanical contractility (cell length changes), optically monitored: obvious increase in contractility
